Laboratory results reported in publication PMC10023780, “Insights into membrane association of the SMP domain of extended synaptotagmin” (Nature Communications, 2023).
Substitutions are numbered along the chain they refer to.

Columns and labels:
SMP of E-Syt3 = target: T1, SMP of E-Syt3 (Homo sapiens, UniProt A0FGR9); assay: FRET dequenching lipid transfer between liposomes; type: biochemical; conditions: curved ER-like donor and PM-like acceptor liposomes, pH 7.4; labelled compound
T1 construct: gene ESYT3; SMP domain alone, residues 113-304, His tag (pET-28a); full-length protein 886 residues
T1 sequence (A0FGR9 113-304): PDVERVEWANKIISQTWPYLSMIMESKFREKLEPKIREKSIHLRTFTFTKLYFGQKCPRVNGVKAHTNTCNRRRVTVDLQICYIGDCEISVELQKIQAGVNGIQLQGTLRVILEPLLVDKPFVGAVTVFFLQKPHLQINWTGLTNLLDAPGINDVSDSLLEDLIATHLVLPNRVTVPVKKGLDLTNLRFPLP

full-length E-Syt1 = target: T2, full-length E-Syt1 (Homo sapiens, UniProt Q9BSJ8); assay: FRET dequenching lipid transfer from proteoliposomes; type: biochemical; conditions: Ca2+ present, 40-nm sorted ER-like proteoliposomes, 800-nm PM-like acceptors, pH 7.4, room temperature; labelled compound
T2 construct: gene ESYT1; full length, residues 1-1104, His-tagged (pCMV6-AN-His), Expi293 cells, detergent-purified, reconstituted in ER-like liposomes
T2 sequence (Q9BSJ8 1-1104): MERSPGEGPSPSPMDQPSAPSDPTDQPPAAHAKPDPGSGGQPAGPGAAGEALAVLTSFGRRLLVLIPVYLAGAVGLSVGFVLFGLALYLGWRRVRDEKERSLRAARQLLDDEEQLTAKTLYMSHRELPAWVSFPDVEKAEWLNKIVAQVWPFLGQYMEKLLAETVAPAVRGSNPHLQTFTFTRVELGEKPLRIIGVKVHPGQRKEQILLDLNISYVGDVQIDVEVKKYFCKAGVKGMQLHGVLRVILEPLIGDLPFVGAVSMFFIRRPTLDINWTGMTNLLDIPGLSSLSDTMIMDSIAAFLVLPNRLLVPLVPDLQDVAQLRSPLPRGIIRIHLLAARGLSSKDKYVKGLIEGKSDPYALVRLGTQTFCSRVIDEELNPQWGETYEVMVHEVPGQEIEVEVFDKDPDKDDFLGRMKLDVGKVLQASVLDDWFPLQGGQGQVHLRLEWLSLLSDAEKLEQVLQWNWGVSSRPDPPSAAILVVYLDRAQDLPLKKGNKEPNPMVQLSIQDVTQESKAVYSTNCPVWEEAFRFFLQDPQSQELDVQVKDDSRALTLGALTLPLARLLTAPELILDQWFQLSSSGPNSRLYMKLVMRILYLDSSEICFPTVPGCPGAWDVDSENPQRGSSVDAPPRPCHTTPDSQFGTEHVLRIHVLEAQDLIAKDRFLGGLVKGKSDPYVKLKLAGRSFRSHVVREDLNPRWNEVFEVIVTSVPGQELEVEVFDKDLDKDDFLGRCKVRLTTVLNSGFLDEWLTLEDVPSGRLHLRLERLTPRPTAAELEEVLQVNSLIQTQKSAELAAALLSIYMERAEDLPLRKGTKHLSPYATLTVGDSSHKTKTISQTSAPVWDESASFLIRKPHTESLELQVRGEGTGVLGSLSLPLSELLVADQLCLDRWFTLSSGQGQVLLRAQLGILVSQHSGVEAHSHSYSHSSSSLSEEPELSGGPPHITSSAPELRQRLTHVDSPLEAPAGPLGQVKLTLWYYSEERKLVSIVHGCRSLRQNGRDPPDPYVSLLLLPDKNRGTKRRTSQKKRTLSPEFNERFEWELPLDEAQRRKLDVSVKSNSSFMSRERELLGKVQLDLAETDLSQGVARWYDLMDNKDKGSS

E-Syt1cyto = target: T3, E-Syt1cyto (Homo sapiens, UniProt Q9BSJ8); assay: FRET dequenching lipid transfer between liposomes; type: biochemical; conditions: Ca2+ present, His tag on DGS-NTA(Ni) ER-like donor liposomes, PM-like acceptors, pH 7.4; labelled compound
T3 construct: gene ESYT1; cytosolic region, residues 93-1104, N-terminal hairpin region replaced by His tag (pCMV6-AN-His)
T3 sequence (Q9BSJ8 93-1104): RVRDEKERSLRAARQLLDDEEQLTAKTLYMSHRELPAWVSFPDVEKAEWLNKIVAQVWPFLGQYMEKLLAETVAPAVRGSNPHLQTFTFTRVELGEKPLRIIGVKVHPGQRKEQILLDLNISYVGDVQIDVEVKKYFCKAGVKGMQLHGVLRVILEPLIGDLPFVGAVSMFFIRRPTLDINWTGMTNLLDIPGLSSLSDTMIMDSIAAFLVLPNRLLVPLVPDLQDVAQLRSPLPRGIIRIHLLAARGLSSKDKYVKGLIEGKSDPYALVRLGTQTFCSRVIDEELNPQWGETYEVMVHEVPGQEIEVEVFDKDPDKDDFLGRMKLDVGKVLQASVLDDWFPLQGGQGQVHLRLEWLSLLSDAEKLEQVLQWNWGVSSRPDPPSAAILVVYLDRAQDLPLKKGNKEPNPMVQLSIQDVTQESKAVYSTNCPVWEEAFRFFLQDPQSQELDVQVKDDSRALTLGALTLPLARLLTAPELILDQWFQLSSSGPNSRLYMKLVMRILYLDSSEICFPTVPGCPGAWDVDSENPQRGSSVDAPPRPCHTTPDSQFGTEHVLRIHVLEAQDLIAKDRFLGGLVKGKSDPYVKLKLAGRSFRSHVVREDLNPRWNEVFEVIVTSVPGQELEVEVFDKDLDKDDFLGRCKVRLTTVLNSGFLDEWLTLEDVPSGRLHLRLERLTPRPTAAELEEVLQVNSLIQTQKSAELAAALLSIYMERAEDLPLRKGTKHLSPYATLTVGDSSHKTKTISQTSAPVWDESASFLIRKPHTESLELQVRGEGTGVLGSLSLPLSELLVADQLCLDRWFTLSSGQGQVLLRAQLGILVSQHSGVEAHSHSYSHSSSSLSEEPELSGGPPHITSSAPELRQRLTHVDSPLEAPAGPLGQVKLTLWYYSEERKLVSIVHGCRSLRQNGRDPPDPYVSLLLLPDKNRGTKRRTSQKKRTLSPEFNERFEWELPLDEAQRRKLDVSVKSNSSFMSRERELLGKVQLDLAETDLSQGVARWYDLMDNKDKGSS

SMP of E-Syt2 = target: T4, SMP of E-Syt2 (Homo sapiens, UniProt A0FGR8); assay: FRET dequenching lipid transfer between liposomes; type: biochemical; conditions: curved ER-like donor and PM-like acceptor liposomes, pH 7.4; labelled compound
T4 construct: gene ESYT2; SMP domain alone, residues 162-355, His tag (pET-28a), dimer
T4 sequence (A0FGR8 162-355 isoform A0FGR8-2): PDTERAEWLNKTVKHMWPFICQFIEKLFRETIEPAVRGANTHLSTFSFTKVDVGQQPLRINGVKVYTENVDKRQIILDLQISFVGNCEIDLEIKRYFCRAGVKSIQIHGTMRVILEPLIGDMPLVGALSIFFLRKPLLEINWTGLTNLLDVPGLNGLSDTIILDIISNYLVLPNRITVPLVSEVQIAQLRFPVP

[1] = target: T5, SMP domain of E-Syt1 (SMP) (Homo sapiens, UniProt Q9BSJ8); assay: FRET dequenching lipid transfer between liposomes; type: biochemical; conditions: 40-nm sorted ER-like donor and 800-nm PM-like acceptor liposomes, pH 7.4, 37 °C, Ca2+ not needed; Rhodamine-PE co-transferred; labelled compound
T5 construct: gene ESYT1; SMP domain alone, residues 134-327, N-terminal His tag (pET-28a), dimer
T5 sequence (Q9BSJ8 134-327): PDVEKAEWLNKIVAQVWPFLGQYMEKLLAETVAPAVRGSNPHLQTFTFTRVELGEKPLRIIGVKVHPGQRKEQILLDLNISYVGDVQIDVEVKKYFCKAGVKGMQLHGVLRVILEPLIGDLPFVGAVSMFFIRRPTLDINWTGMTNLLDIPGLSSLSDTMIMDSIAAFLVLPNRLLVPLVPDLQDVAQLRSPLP

SMP-C2AB of E-Syt1 [2] = target: T6, SMP-C2AB of E-Syt1 (Homo sapiens, UniProt Q9BSJ8); assay: native PAGE, NBD fluorescence of protein band; type: binding; conditions: protein 40 uM, 4 °C, 1 h; solubilized NBD-PE added in methanol; labelled compound
T6 construct: gene ESYT1; SMP-C2A-C2B fragment, residues 93-634, His-tagged (pCMV6-AN-His), Expi293 cells, Ni-NTA and gel filtration
T6 sequence (Q9BSJ8 93-634): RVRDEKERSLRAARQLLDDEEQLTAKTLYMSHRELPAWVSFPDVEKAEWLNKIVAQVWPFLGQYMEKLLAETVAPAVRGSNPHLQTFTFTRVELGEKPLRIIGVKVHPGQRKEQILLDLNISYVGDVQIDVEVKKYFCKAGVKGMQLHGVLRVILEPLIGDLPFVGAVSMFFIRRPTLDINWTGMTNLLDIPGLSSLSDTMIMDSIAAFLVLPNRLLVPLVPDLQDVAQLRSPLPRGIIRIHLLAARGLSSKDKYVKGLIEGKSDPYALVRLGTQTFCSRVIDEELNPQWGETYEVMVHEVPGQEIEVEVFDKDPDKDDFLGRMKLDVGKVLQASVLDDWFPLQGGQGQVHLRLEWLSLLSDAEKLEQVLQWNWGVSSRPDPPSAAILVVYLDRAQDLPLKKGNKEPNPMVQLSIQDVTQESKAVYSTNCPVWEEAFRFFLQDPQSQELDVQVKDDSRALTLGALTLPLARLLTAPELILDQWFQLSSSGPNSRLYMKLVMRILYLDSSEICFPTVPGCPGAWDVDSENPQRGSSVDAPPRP

SMP-C2AB of E-Syt1 [3] = target: T7, SMP-C2AB of E-Syt1 (Homo sapiens, UniProt Q9BSJ8, V169W/L308W); assay: native PAGE, NBD fluorescence of protein band; type: binding; conditions: protein 40 uM, 4 °C, 1 h; solubilized NBD-PE added in methanol; lipid cavity blocked; labelled compound
T7 construct: gene ESYT1; SMP-C2A-C2B fragment, residues 93-634, His-tagged (pCMV6-AN-His), Expi293 cells, Ni-NTA and gel filtration
T7 sequence (Q9BSJ8 93-634 V169W/L308W): T6 sequence (Q9BSJ8 93-634) with V77W, L216W

SMP-C2AB of E-Syt1 [4] = target: T8, SMP-C2AB of E-Syt1 (Homo sapiens, UniProt Q9BSJ8, K227E); assay: native PAGE, NBD fluorescence of protein band; type: binding; conditions: protein 40 uM, 4 °C, 1 h; solubilized NBD-PE added in methanol; labelled compound
T8 construct: gene ESYT1; SMP-C2A-C2B fragment, residues 93-634, His-tagged (pCMV6-AN-His), Expi293 cells, Ni-NTA and gel filtration
T8 sequence (Q9BSJ8 93-634 K227E): T6 sequence (Q9BSJ8 93-634) with K135E

CCCCCCCC/C=C\CCCCCCCC(=O)OC[C@H](COP(=O)(O)OCCNc1ccc([N+](=O)[O-])c2nonc12)OC(=O)CCCCCCC/C=C\CCCCCCCC [NBD-PE, 1,2-dioleoyl-sn-glycero-3-phosphoethanolamine-N-(7-nitro-2-1,3-benzoxadiazol-4-yl)]
FRET dequenching lipid transfer between liposomes (SMP of E-Syt3): SMP domains of E-Syt2 and E-Syt3 showed similar membrane curvature- and charge-facilitated lipid transfer
FRET dequenching lipid transfer from proteoliposomes (full-length E-Syt1): 40-nm sorted ER-like proteoliposomes dramatically accelerated the lipid transfer by E-Syt1
FRET dequenching lipid transfer between liposomes (E-Syt1cyto): purified His-tagged E-Syt1cyto had comparable lipid transfer and membrane tethering levels as full-length E-Syt1
FRET dequenching lipid transfer between liposomes (SMP of E-Syt2): SMP domains of E-Syt2 and E-Syt3 showed similar membrane curvature- and charge-facilitated lipid transfer
FRET dequenching lipid transfer between liposomes [1]: 40-nm sorted ER-like liposomes produced a robust lipid transfer level
native PAGE, NBD fluorescence of protein band (SMP-C2AB of E-Syt1 [2]): solubilized NBD-PE was loaded onto purified WT protein and K227E mutant
native PAGE, NBD fluorescence of protein band (SMP-C2AB of E-Syt1 [3]): block the hydrophobic cavity of the SMP domain (V169W/L308W) impaired lipid harboring
native PAGE, NBD fluorescence of protein band (SMP-C2AB of E-Syt1 [4]): NBD-PE was loaded onto purified WT protein and K227E mutant at a similar level
